The subject of data set [1] is SNB-19 (human astrocytoma). Put plainly: MTT cytotoxicity assay, SNB-19. It counts as cell-based. As to conditions: for IC50: Homo sapiens, SNB-19, MTT, 72 h exposure, three independent experiments, read-out: Cytotoxic activity IC50 (95% CI) SNB-19; for Selectivity index SNB-19: ratio of cytotoxicity L929 / SNB-19. How it is done: (§1) In this study, the IC50 was obtained in micromolar concentrations, using the colourimetric MTT (3-(4,5-dimethylthiazol-2-yl)-2,5-diphenyl tetrazolium bromide)) assay, and doxorubicin was used as the positive control. […] The activity against the non-tumoural murine fibroblast cell line L929 was also evaluated in order to study the cytotoxicity behaviour of each compound and to understand their respective relative selectivity. The selectivity index was obtained using the ratio of measured cytotoxicity between the L929 cell line and each of the cancer cell lines, and the results are presented in Table 2.
(§2) The in vitro cytotoxicity activity of the compounds was evaluated by the colorimetric MTT (3-(4,5-dimethylthiazol-2-yl)-2,5-diphenyl tetrazolium bromide)) assay using the following tumor cell lines: HCT-116 (colon carcinoma), PC3 (prostate), SNB-19 (glioblastoma), K-562 (myelogenous leukaemia), HL-60 (human promyelocytic leukaemia), B16 (murine melanoma), A549 (human lung carcinoma), KG1 (human acute myeloid leukaemia), and RAJI (human Burkitt’s lymphoma), which were provided by the National Cancer Institute (Bethesda, MD, USA). The L929 cell line (mouse fibroblast L cells NCTC clone 929) employed in this study as a control cell line was obtained from the American Type Culture Collection (Manassas, VA, USA). The cell lines (Table S4) were maintained in flasks containing RPMI 1640 or DMEM medium supplemented with 10% bovive fetal sérum, 100 U/mL penicillin, and 100 μg/mL streptomycin at 37 °C and in 5% CO2 atmosphere. The compounds tested were dissolved in DMSO. Doxorubicin served as the positive control. Cell treatments were performed with three replicates and the cells were mycoplasma free. After 72 h incubation, 100 μL of MTT solution (0.5 mg/mL) was added to each well, and the cells were incubated for 3 h. The supernatant was removed and 100 μL of DMSO was added and the absorbance at 595 nm was measured using Victor Nivo Multimode plate reader (PerkinElmer, Waltham, MA, USA). The absorbances obtained were used to calculate the IC50 values by nonlinear regression employing appropriate statistical software.
(§3) The in vitro cytotoxicity activity of compounds was evaluated by the colorimetric MTT (3-(4,5-dimethylthiazol-2-yl)-2,5-diphenyl tetrazolium bromide)) assay using tumor cell lines: HCT-116 (colon carcinoma), PC3 (prostate), SNB-19 (glioblastoma), K-562 (myelogenous leukaemia), HL-60 (human promyelocytic leukaemia), B16 (murine melanoma), A549 (human lung carcinoma), KG1 (human acute myeloid leukaemia) and RAJI (human Burkitt's lymphoma), which were provided by the National Cancer Institute (Bethesda, MD, USA). The L929 cell line (mouse fibroblast L cells NCTC clone 929) employed in this study as a control cell line was obtained from the American Type Culture […]
(§4) Collection (Manassas, VA, USA). Cell lines (Table 01) were maintained in flasks containing RPMI 1640 or DMEM medium supplemented with 10% bovive fetal sérum, 100 U/mL penicillin, and 100 μg/mL streptomycin at 37 °C and 5% CO2 atmosphere.
(§5) Compounds tested were dissolved in DMSO. Doxorubicin served as positive control. Cell treatments were performed with three replicates and cells were mycoplasma-free. After 72 h incubation, 100 μL of MTT solution (0.5 mg/mL) was added to each well, and cells were incubated for 3 h. The supernatant was removed and 100 μL of DMSO was added and the absorbance at 595 nm was measured using Victor Nivo Multimode plate reader

For data set [2], the system named is HCT-116 (human colorectal carcinoma). Put plainly: MTT cytotoxicity assay, HCT-116. It counts as cell-based. As to conditions: for IC50: Homo sapiens, HCT-116, 72 h, MTT, 72 h exposure, three independent experiments, read-out: Cytotoxic activity IC50 (95% CI) HCT-116; for Selectivity index HCT-116: ratio of cytotoxicity L929 / HCT-116. How it is done:
as §1, §2, §3, §4, §5
For orientation: Tetrazolium dyes change colour on reduction, which living cells bring about.

Data set [3] deals with KG1 (human acute myeloid leukaemia). Put plainly: MTT cytotoxicity assay, KG1. As to conditions: for IC50: Homo sapiens, MTT, 72 h exposure, three independent experiments, read-out: Cytotoxic activity IC50 (95% CI) KG1; for Selectivity index KG1: ratio of cytotoxicity L929 / KG1. It counts as cell-based. How it is done:
as §1, §2, §3, §4, §5

The nature of data set [4]: MTT cytotoxicity assay, L929 control line. It counts as cell-based, mouse. The settings on record: mouse, L929 fibroblast cells (non-tumoral control line), 72 h exposure, read-out: Cytotoxic activity IC50 (95% CI) L929. As for the experimental part:
as §1, §2, §3, §4, §5

The test system of data set [5] is PC3 (human prostate adenocarcinoma). Put plainly: MTT cytotoxicity assay, PC3. The format is cell-based. The settings on record: for IC50: Homo sapiens; for Selectivity index PC3: ratio of cytotoxicity L929 / PC3. How it is done:
as §1, §2, §3, §4, §5

Data set [6] deals with K-562 (human chronic myeloid leukaemia). Put plainly: MTT cytotoxicity assay, K-562. The format is cell-based. As to conditions: for IC50: Homo sapiens, K562, MTT, 72 h exposure, three independent experiments, read-out: Cytotoxic activity IC50 (95% CI) K-562; for Selectivity index K-562: ratio of cytotoxicity L929 / K-562. As for the experimental part:
as §1, §2, §3, §4, §5

Data set [7] relates to RAJI (human Burkitt’s lymphoma). Put plainly: MTT cytotoxicity assay, RAJI. The format is cell-based. The settings on record: for IC50: Homo sapiens, Raji, 72 h, MTT, 72 h exposure, three independent experiments, read-out: Cytotoxic activity IC50 (95% CI) RAJI; for Selectivity index RAJI: ratio of cytotoxicity L929 / RAJI. As for the experimental part:
as §1, §2, §3, §4, §5

The subject of data set [8] is A549 (human lung carcinoma). Put plainly: MTT cytotoxicity assay, A549. As to conditions: for IC50: Homo sapiens, A549, MTT, 72 h exposure, three independent experiments, read-out: Cytotoxic activity IC50 (95% CI) A549; for Selectivity index A549: ratio of cytotoxicity L929 / A549. It counts as cell-based. As for the experimental part:
as §1, §2, §3, §4, §5

Data set [9] has as its system HL60 (human pro-myelocytic leukaemia). Put plainly: MTT cytotoxicity assay, HL60. It counts as cell-based. The settings on record: for IC50: Homo sapiens, HL-60, 72 h, MTT, 72 h exposure, three independent experiments, read-out: Cytotoxic activity IC50 (95% CI) HL60; for Selectivity index HL60: ratio of cytotoxicity L929 / HL60. How it is done: as §1, §2, §3, §4, §5

Another data set deals with B16 (murine melanoma). Put plainly: MTT cytotoxicity assay, B16. The format is cell-based. As to conditions: for IC50: Mus musculus, MTT, 72 h exposure, three independent experiments, read-out: Cytotoxic activity IC50 (95% CI) B16; for Selectivity index B16: ratio of cytotoxicity L929 / B16. As for the experimental part:
as §1, §2, §3, §4, §5

Setting [10] is: MTT, 72 h exposure, three independent experiments, read-out: Cytotoxic activity IC50 (95% CI) PC3.

Read-outs that look alike come from different tables or passages of the source.

Usually IC50 stands for the concentration that inhibits the measured activity by half. For `[N-]=[N+]=NCC1CC2=C(O1)c1ccccc1C(=O)C2=O` (stereo not shown) [Compound 7, 2-(azidomethyl)-2,3-dihydronaphtho[1,2-b]furan-4,5-dione], the IC50 is 1.43 µM in data set [1]; 1.8 µM in data set [2]; 3.67 µM in data set [3]; 2 to 10 µM in data set [5] (72 h, read-out: Bioactivity class according to IC50, PC3); 2.25 µM in [5] (setting [10]); 0.98 µM in data set [6]. In addition, the IC50 in data set [7] was found to be 0.53 µM; in data set [8] it was 2.63 µM; in [9], 0.59 µM; with B16 (murine melanoma) it was 1.99 µM. The “Selectivity index SNB-19” value in data set [1] came to 2.4. Besides, the “Selectivity index HCT-116” value in data set [2] is listed as 1.9. Moreover, the “Selectivity index KG1” value in [3] is reported as 0.9. Moreover, in data set [4], the IC50 at 72 h amounted to 3.46 µM. Further, in [5], the “Selectivity index PC3” value worked out at 1.5. For the same compound, in data set [6], the “Selectivity index K-562” value was determined as 3.5. Also, in [7], the “Selectivity index RAJI” value turned out to be 6.5. Further, in [8], the “Selectivity index A549” value was 1.3. In addition, the “Selectivity index HL60” value in [9] is recorded as 5.9. For the same compound, the “Selectivity index B16” value in the data set on B16 (murine melanoma) came out at 1.7.

`CC1(C)OC2=C(CC1Cn1cc(CNC3=CC(=O)c4c(I)cccc4C3=O)nn1)C(=O)C(=O)c1ccccc12` (stereo not shown) [Compound 21a, 3-((4-(((5-iodo-1,4-dioxo-1,4-dihydronaphthalen-2-yl)amino)methyl)-1H-1,2,3-triazol-1-yl)methyl)-2,2-dimethyl-3,4-dihydro-2H-benzo[h]chromene-5,6-dione]: in [1], the IC50 came to 2.93 µM and the “Selectivity index SNB-19” value came to 0.6. In addition, in data set [2], the IC50 stood at 2.69 µM and the “Selectivity index HCT-116” value is 0.7. For the same compound, in data set [3], the IC50 is 4.2 µM and the “Selectivity index KG1” value turned out to be 0.4. In addition, the IC50 at 72 h in data set [4] worked out at 1.86 µM. The IC50 in data set [5] (setting [10]) was 6.19 µM. Moreover, the “Selectivity index PC3” value in [5] is 0.3. In data set [6], the IC50 was found to be 5.03 µM and the “Selectivity index K-562” value stood at 0.4. In addition, in [7], the IC50 amounted to 5.71 µM and the “Selectivity index RAJI” value was found to be 0.3. For the same compound, in data set [8], the IC50 turned out to be 2.76 µM and the “Selectivity index A549” value was 0.7. Besides, in data set [9], the concentration for half-maximal inhibition (IC50) turned out to be 1.02 µM and the “Selectivity index HL60” value is given as 1.8. For the same compound, in the data set on B16 (murine melanoma), the IC50 was 0.96 µM and the “Selectivity index B16” value stood at 1.9.

Regarding `C#CCNC1=CC(=O)c2cccc(OC)c2C1=O` [Compound 18c, 8-methoxy-2-(prop-2-yn-1-ylamino)naphthalene-1,4-dione], the half-inhibitory concentration (IC50) was greater than 100 µM in data set [1]; greater than 100 µM in [2]; greater than 100 µM in [3]; greater than 100 µM in [5] (setting [10]); greater than 100 µM in data set [6]; 39.3 µM in data set [7]. Moreover, the IC50 in data set [8] is greater than 100 µM; in [9] it was greater than 100 µM; in the data set on B16 (murine melanoma), 43.8 µM. Besides, the half-inhibitory concentration (IC50) at 72 h in [4] is greater than 100 µM. Moreover, the “Selectivity index RAJI” value in [7] came to 2.5. The “Selectivity index B16” value in the data set on B16 (murine melanoma) was 2.3.

`CC1(C)OC2=C(C(=O)C(=O)c3ccccc32)C1n1cc(CNC2=CC(=O)c3cc4ccccc4cc3C2=O)nn1` (stereo not shown) [Compound 19e, 3-(4-(((1,4-dioxo-1,4-dihydroanthracen-2-yl)amino)methyl)-1H-1,2,3-triazol-1-yl)-2,2-dimethyl-2,3-dihydronaphtho[1,2-b]furan-4,5-dione]: in data set [1], the IC50 turned out to be 3.52 µM and the “Selectivity index SNB-19” value came out at 1.4. In data set [2], the half-maximal inhibitory concentration (IC50) came to 2.63 µM and the “Selectivity index HCT-116” value was 1.8. For the same compound, in data set [3], the IC50 is 4.77 µM and the “Selectivity index KG1” value was 1.0. Moreover, in data set [4], the IC50 at 72 h turned out to be 4.83 µM. In addition, the IC50 in [5] (setting [10]) was determined as 3.48 µM. Further, the “Selectivity index PC3” value in [5] is listed as 1.4. Moreover, in data set [6], the half-maximal inhibitory concentration (IC50) was 8.13 µM and the “Selectivity index K-562” value stood at 0.6. For the same compound, in [7], the IC50 came to 1.69 µM and the “Selectivity index RAJI” value is given as 2.9. In [8], the IC50 came out at 6.14 µM and the “Selectivity index A549” value is on record as 0.8. Further, in [9], the IC50 amounted to 0.86 µM and the “Selectivity index HL60” value is given as 5.6. For the same compound, in the data set with B16 (murine melanoma), the IC50 came to 3.97 µM and the “Selectivity index B16” value came to 1.2.

The values above are taken from article PMC10005332, “It Takes Two to Tango, Part II: Synthesis of A-Ring Functionalised Quinones Containing Two Redox-Active Centres with Antitumour Activities” (Molecules, 2023).
